Test results published in PubChem BioAssay AID2060342 (Molecular Pharmacology Branch, DTP, NCI, 2025).
“And” between values parts separate entries of the source, which are not always exact repeats. Equal entries are not always repeated.

Test system: 171881-019-R-J1-PDC multicell spheroid viability
Assay: Anticancer human tumor 171881-019-R-J1-PDC patient-derived invasive breast carcinoma cell line growth inhibition [IpAb]
Conditions: for viability, T/C: stronger effect = lower value
Procedure, shortened: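 Combinations with ipatasertib or abemaciclib were tested on tumour spheroids holding HUVEC (25%) and MSC (15%) alongside 60% malignant cells. Top concentration was at or near clinical Cmax (10 microM if undefined), descending in half-log steps.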

[1] = curve of first compound, second compound 0.1 µM
[2] = curve of first compound, second compound 0.316 µM
[3] = curve of first compound, second compound 1 µM
[4] = curve of first compound, second compound 3.16 µM
[5] = curve of first compound, second compound 10 µM
[6] = second compound 0.1 µM, first compound 0.0316 µM
[7] = second compound 0.1 µM, first compound 0.1 µM
[8] = second compound 0.1 µM, first compound 0.316 µM
[9] = second compound 0.1 µM, first compound 1 µM
[10] = second compound 0.1 µM, first compound 3.16 µM
[11] = second compound 0.1 µM, first compound 10 µM
[12] = second compound 0.316 µM, first compound 0.0316 µM
[13] = second compound 0.316 µM, first compound 0.1 µM
[14] = second compound 0.316 µM, first compound 0.316 µM
[15] = second compound 0.316 µM, first compound 1 µM
[16] = second compound 0.316 µM, first compound 3.16 µM
[17] = second compound 0.316 µM, first compound 10 µM
[18] = second compound 1 µM, first compound 0.0316 µM
[19] = second compound 1 µM, first compound 0.1 µM
[20] = second compound 1 µM, first compound 0.316 µM
[21] = second compound 1 µM, first compound 1 µM
[22] = second compound 1 µM, first compound 3.16 µM
[23] = second compound 1 µM, first compound 10 µM
[24] = second compound 3.16 µM, first compound 0.0316 µM
[25] = second compound 3.16 µM, first compound 0.1 µM
[26] = second compound 3.16 µM, first compound 0.316 µM
[27] = second compound 3.16 µM, first compound 1 µM
[28] = second compound 3.16 µM, first compound 3.16 µM
[29] = second compound 3.16 µM, first compound 10 µM
[30] = second compound 10 µM, first compound 0.0316 µM
[31] = second compound 10 µM, first compound 0.1 µM
[32] = second compound 10 µM, first compound 0.316 µM
[33] = second compound 10 µM, first compound 1 µM
[34] = second compound 10 µM, first compound 3.16 µM
[35] = second compound 10 µM, first compound 10 µM
[36] = curve of first compound, second compound 0.01 µM
[37] = curve of first compound, second compound 0.0316 µM
[38] = second compound 0.01 µM, first compound 0.0316 µM
[39] = second compound 0.01 µM, first compound 0.1 µM
[40] = second compound 0.01 µM, first compound 0.316 µM
[41] = second compound 0.01 µM, first compound 1 µM
[42] = second compound 0.01 µM, first compound 3.16 µM
[43] = second compound 0.01 µM, first compound 10 µM
[44] = second compound 0.0316 µM, first compound 0.0316 µM
[45] = second compound 0.0316 µM, first compound 0.1 µM
[46] = second compound 0.0316 µM, first compound 0.316 µM
[47] = second compound 0.0316 µM, first compound 1 µM
[48] = second compound 0.0316 µM, first compound 3.16 µM
[49] = second compound 0.0316 µM, first compound 10 µM
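Further: spheroids exposed to the agents for seven days before readout.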

Structure (SMILES) | IC50 [1] [µM] | IC50 [2] [µM] | IC50 [3] [µM] | viability, T/C [6] [%] | viability, T/C [7] [%] | viability, T/C [8] [%] | viability, T/C [9] [%] | viability, T/C [10] [%] | viability, T/C [11] [%] | viability, T/C [12] [%] | viability, T/C [13] [%] | viability, T/C [14] [%] | viability, T/C [15] [%] | viability, T/C [16] [%] | viability, T/C [17] [%] | viability, T/C [18] [%] | viability, T/C [19] [%] | viability, T/C [20] [%] | viability, T/C [21] [%] | viability, T/C [22] [%] | other results
Cn1nccc1Nc1nccc(-c2ccn(C(CO)c3ccc(Cl)c(F)c3)c(=O)c2)n1 (configuration not stated) + CC(C)NCC(C(=O)N1CCN(c2ncnc3c2C(C)CC3O)CC1)c1ccc(Cl)cc1 | 0.169 | 0.0648 | < 0.0316 | 111 | 65.8 | 32.5 | 10.4 | 7.79 | 7.95 | 69.1 | 38.5 | 9.02 | 4.73 | 3.47 | 3.81 | 17.9 | 10.3 | 3.68 | 2.46 | 2.13 | IC50 [4]: < 0.0316 µM; IC50 [5]: < 0.0316 µM; viability, T/C [23]: 1.27%; viability, T/C [24]: 6.73%; viability, T/C [25]: 3.37%; viability, T/C [26]: 2.44%; viability, T/C [27]: 1.77%; viability, T/C [28]: 0.69%; viability, T/C [29]: 0.94%; viability, T/C [30]: 3.16%; viability, T/C [31]: 2.33%; viability, T/C [32]: 1.55%; viability, T/C [33]: 1.06%; viability, T/C [34]: 0.84%; viability, T/C [35]: 0.32%
Cn1ncc(Cl)c1-c1cc(C(=O)NC(CN)Cc2cccc(F)c2)sc1Cl (configuration not stated) + CC(C)NCC(C(=O)N1CCN(c2ncnc3c2C(C)CC3O)CC1)c1ccc(Cl)cc1 | 0.161 | 0.0663 | < 0.0316 | 86.5 | 67.3 | 25 | 13.1 | 4.31 | 0.42 | 59.8 | 45.3 | 22.6 | 10.6 | 3.79 | 0.18 | 23.8 | 20.8 | 13.8 | 9.71 | 3.91 | IC50 [4]: < 0.0316 µM; IC50 [5]: < 0.0316 µM; viability, T/C [23]: 0.14%; viability, T/C [24]: 10.8%; viability, T/C [25]: 10.5%; viability, T/C [26]: 9.15%; viability, T/C [27]: 7.27%; viability, T/C [28]: 3.38%; viability, T/C [29]: 0.25%; viability, T/C [30]: 5.35%; viability, T/C [31]: 5.51%; viability, T/C [32]: 5.12%; viability, T/C [33]: 4.62%; viability, T/C [34]: 2.7%; viability, T/C [35]: 0.21%
C=CC(=O)N1CCN(c2nc(=O)n(-c3c(C)ccnc3C(C)C)c3nc(-c4c(O)cccc4F)c(F)cc23)C(C)C1 (configuration not stated) + CCN1CCN(Cc2ccc(Nc3ncc(F)c(-c4cc(F)c5nc(C)n(C(C)C)c5c4)n3)nc2)CC1 | > 10 | > 10 | > 10 | 117 | 128 | 114 | 108 | 105 | 49.7 | 136 | 132 | 132 | 131 | 114 | 59.7 | 148 | 148 | 149 | 143 | 127 | IC50 [36]: 8.35 µM; IC50 [37]: 9.5 µM; viability, T/C [38]: 103%; viability, T/C [39]: 90.1%; viability, T/C [40]: 89.5%; viability, T/C [41]: 94.8%; viability, T/C [42]: 97.5%; viability, T/C [43]: 41.6%; viability, T/C [44]: 99.1%; viability, T/C [45]: 94.1%; viability, T/C [46]: 104%; viability, T/C [47]: 90.6%; viability, T/C [48]: 91.5%; viability, T/C [49]: 47.7%; viability, T/C [23]: 76.6%
C=CC(=O)N1CCN(c2nc(=O)n(-c3c(C)ccnc3C(C)C)c3nc(-c4c(O)cccc4F)c(F)cc23)C(C)C1 (configuration not stated) |  |  |  |  |  |  |  |  |  |  |  |  |  |  |  |  |  |  |  |  | viability, T/C (compound 0.0316 µM): 98.7% and 101%; viability, T/C (compound 0.1 µM): 92.3% and 95.8%; viability, T/C (compound 0.316 µM): 99% and 106%; viability, T/C (compound 1 µM): 94.1% and 95.3%; viability, T/C (compound 3.16 µM): 93.6% and 84.7%; viability, T/C (compound 10 µM): 35.2% and 31.8%; IC50 (curve of compound): 7.47 µM and 6.74 µM
C=CCn1c(=O)c2cnc(Nc3ccc(N4CCN(C)CC4)cc3)nc2n1-c1cccc(C(C)(C)O)n1 + CCN1CCN(Cc2ccc(Nc3ncc(F)c(-c4cc(F)c5nc(C)n(C(C)C)c5c4)n3)nc2)CC1 | 1.66 | > 10 | > 10 | 110 | 105 | 126 | 57.9 | 42.7 | 37.2 | 131 | 137 | 134 | 83.1 | 57.1 | 47.7 | 150 | 150 | 149 | 98.8 | 78.7 | IC50 [36]: 0.864 µM; IC50 [37]: 1 µM; viability, T/C [38]: 88.8%; viability, T/C [39]: 93.3%; viability, T/C [40]: 109%; viability, T/C [41]: 43.2%; viability, T/C [42]: 30.3%; viability, T/C [43]: 30.3%; viability, T/C [44]: 116%; viability, T/C [45]: 97.3%; viability, T/C [46]: 119%; viability, T/C [47]: 50%; viability, T/C [48]: 35%; viability, T/C [49]: 32%; viability, T/C [23]: 69.8%
